From ChEMBL document CHEMBL5325495, “Synthesis and anti-cancer potential of potent peripheral MAOA inhibitors designed to limit blood:brain penetration” (Bioorg Med Chem, 2023)

How the values were obtained:
LNCaP C4-2B = test: Cytotoxicity against human LNCaP C4-2B cells incubated for 3 days by Cell-Titer Glo assay; type: functional; conditions: 72 h, time 3 day
[1] = target: T1, Amine oxidase [flavin-containing] A (Homo sapiens, UniProt P21397); test: Inhibition of recombinant human MAO-A expressed in baculovirus infected BTI insect cells
T1 sequence (P21397 whole entry): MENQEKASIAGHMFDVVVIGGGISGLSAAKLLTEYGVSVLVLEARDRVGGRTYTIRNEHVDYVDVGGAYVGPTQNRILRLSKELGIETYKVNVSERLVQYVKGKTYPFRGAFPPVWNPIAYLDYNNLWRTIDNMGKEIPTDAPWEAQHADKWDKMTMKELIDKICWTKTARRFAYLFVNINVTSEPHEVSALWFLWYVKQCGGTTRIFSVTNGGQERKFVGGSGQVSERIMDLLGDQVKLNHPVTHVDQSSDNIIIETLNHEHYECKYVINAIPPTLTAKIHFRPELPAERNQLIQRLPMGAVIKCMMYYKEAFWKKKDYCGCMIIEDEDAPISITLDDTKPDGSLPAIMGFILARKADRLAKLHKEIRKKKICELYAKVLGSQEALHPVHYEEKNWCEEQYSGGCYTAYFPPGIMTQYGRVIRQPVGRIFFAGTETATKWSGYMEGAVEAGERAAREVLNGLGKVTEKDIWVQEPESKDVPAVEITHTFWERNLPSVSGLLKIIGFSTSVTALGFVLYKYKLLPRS

LNCaP = test: Cytotoxicity against human LNCaP cells incubated for 3 days by Cell-Titer Glo assay; type: functional; conditions: 72 h, time 3 day
[2] = target: T2, Amine oxidase [flavin-containing] B (Homo sapiens, UniProt P27338); test: Inhibition of recombinant human MAO-B expressed in baculovirus infected BTI insect cells; type: cell-based
T2 sequence (P27338 whole entry): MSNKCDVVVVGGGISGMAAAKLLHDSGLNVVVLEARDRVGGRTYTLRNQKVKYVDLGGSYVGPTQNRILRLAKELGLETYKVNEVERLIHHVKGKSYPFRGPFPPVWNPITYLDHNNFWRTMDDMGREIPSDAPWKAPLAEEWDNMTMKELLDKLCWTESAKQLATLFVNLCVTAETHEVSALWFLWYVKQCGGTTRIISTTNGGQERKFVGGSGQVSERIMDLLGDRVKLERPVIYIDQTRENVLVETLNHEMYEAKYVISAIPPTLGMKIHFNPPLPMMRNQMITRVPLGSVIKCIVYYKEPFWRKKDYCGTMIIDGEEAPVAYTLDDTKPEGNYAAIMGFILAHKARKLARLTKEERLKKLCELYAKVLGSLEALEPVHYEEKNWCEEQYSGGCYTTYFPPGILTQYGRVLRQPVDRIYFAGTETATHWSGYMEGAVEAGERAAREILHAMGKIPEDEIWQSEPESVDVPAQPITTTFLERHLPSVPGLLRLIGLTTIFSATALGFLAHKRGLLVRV

SMILES | IC50 [1] [µM] | IC50 [2] [µM] | CC50 (LNCaP C4-2B) [µM] | CC50 (LNCaP) [µM]
C#CCN(C)CCCOc1cc(NC(=O)c2cc[nH]n2)c(Cl)cc1Cl | 25.7 | > 500 | 32.5 | 15.8
C#CCN(C)CCCOc1cc(NC(C)=O)c(Cl)cc1Cl | 8.66 | 352 | 97 | 97.3
C#CCN(CCO)CCCOc1ccc(Cl)cc1Cl | 0.794 | > 500 | 46.5 | 35.7
C#CCN(C)CCCOc1cc(C)c(Cl)cc1Cl | 6.78 | 122 | 66 | 37
C#CCN(C)CCCOc1cc(NC=O)c(Cl)cc1Cl | 6.6 | 25.3 | 84 | 85.9
C#CCN(C)CCCOc1ccc(Cl)cc1Cl [CLORGILINE] |  |  | 53.5 | 51.5
NNCCc1ccccc1 [PHENELZINE] |  |  | 157 | 121

The remaining compounds from weak to strong by IC50 [1], led by results:

IC50 [1] [µM] | IC50 [2] [µM] | SMILES | CC50 (LNCaP C4-2B) [µM] | CC50 (LNCaP) [µM]
0.764 | > 500 | C#CCN(CCO)CCCOc1cc(N)c(Cl)cc1Cl | 43.9 | 55.8
0.103 | 38 | C#CCN(C)CCCOc1cc(C#N)c(Cl)cc1Cl | 72.4 | 65.4
0.0715 | > 500 | C#CCN(C)C[C@@H](O)COc1cc(N)c(Cl)cc1Cl | 73.7 | 78.9
0.0715 | > 500 | C#CCN(C)C[C@H](O)COc1cc(N)c(Cl)cc1Cl | 73.7 | 78.9
0.064 | 69.6 | C#CCN(C)CCCOc1cc(NS(C)(=O)=O)c(Cl)cc1Cl | 119 | 103
0.0244 | 0.91 | C#CCN(C)CCCOc1cc(O)c(Cl)cc1Cl | 30.2 | 35.5
0.0148 | > 500 | C#CCN(C)CCCOc1cc(N)c(Cl)cc1Cl | 31.6 | 31.1
